Positions of bridges follow the written chain, without caps; N, C: chain ends. Non-standard residues stand in square brackets, D forms with d. Residues, ends and D or L forms follow the SMILES beside them. pGlu = O=C1CC[C@@H](C(=O)O)N1
Tests used:
Acidic stability assay = assay type: physicochemical; settings: native cC1a 200 µM; acidic conditions (pH 2), 1 M HCl in legend, 2 M HCl in method, 2 h; quenched with 1 M NaOH; RP-UHPLC; triplicate
Method: (§1) Figure 6 Stability assays of coffeetide cC1a. An amount of 200 µM coffeetide cC1a was subjected to (A) heat at 100 °C for 2 h, (B) acidic conditions in 1 M HCl (pH 2.0) for 2 h, (C) pepsin in 100 mM sodium citrate buffer (pH 2.5) for 6 h, (D) aminopeptidase I in 20 mM tricine for 6 h, and (E) human serum for 36 h. MALDI-TOF MS was used to characterize coffeetide cC1a and reversed-phase ultra-high pressure liquid chromatography was used to quantify cC1a in the treated samples to calculate the percentage of cC1a remaining intact.
(§2) Thermal and acidic stability: A solution of purified 200 µM coffeetide cC1a was subjected to rigorous conditions, including incubation at 100 °C in a water bath and exposure to 2 M hydrochloric acid for 2 h. The reactions were promptly quenched, either by placing the samples in an ice bath for 10 min or by adding 1 M sodium hydroxide at various time intervals (0, 30, 60, 90, 120 min). Subsequently, the treated samples were injected into RP-UHPLC to evaluate the presence of coffeetide cC1a and quantify any degradation. Each experiment was conducted in triplicate, and MALDI-TOF MS was employed to analyze the collected peaks.

pepsin = tested on: T1, pepsin; assay: Proteolytic stability, pepsin; assay type: in vitro ADME; settings: native cC1a 200 µM, 4 mg/mL pepsin in 100 mM sodium citrate buffer pH 2.5, 37 °C, RP-UHPLC, read-out: coffeetide remained intact with pepsin
T1 construct: purchased Sigma Aldrich or Fisher Scientific (general statement only)
Method: as §1
(§3) Proteolytic stability: In this test, purified 200 µM coffeetide cC1a was exposed to 37 °C for 6 h in the presence of 4 mg/mL of pepsin in a 100 mM sodium citrate buffer (pH 2.5) or 20 U/mL of aminopeptidase I in 20 mM tricine and 0.05% bovine serum albumin (pH 8.0). The peptide-to-enzyme ratio (w/w) was maintained at either 20:1 or 50:1. At specific time intervals (0, 2, 4, and 6 h), 20 µL of each sample was injected into RP-UHPLC to monitor degradation.

[1] = Human serum-mediated stability; assay type: in vitro ADME; settings: 25% human serum (AB-type) in DMEM, native cC1a, 25% human male serum (AB-type) in phenol red-free DMEM, 37 °C, ethanol precipitation, RP-UHPLC, read-out: coffeetide remained after treatment with human serum
Method: as §1
Human serum-mediated stability: To assess stability in a biologically relevant context, purified 200 µg coffeetide cC1a was incubated with 25% human male serum (AB-type) in phenol red-free Dulbecco’s Modified Eagle Medium (DMEM) at 37 °C for 48 h. At defined time points (0 h, 12 h, 24 h, and 48 h), 50 µL of the samples were collected and treated with 100 µL of 95% ethanol to precipitate serum proteins. After incubation at 4 °C for 15 min and centrifugation at 13,000 rpm for 10 min, the extent of degradation was evaluated through RP-UHPLC chromatograms.

HeLa cells = assay: MTT toxicity assay, HeLa; assay type: cell-based, human; settings: 24 h treatment, concentrations up to 100 µM, MTT absorbance 550 nm, mean ± S.E.M. n = 3
Method: (§4) HeLa cells (human cervical cancer cells) and HUVEC-CS (human umbilical vein endothelial cells) were cultured in DMEM (Dulbecco’s Modified Eagle Medium) from Thermo Scientific, supplemented with 10% fetal bovine serum, 100 U/mL of penicillin, and streptomycin. Cell cultures were maintained in a 5% CO2 incubator at 37 °C.
(§5) To evaluate cell viability, a 3-(4,5-dimethylthiazolyl-2)-2,5-diphenyltetrazolium bromide (MTT) dye reduction assay was employed. In brief, HeLa and HUVEC-CS cells were subjected to treatment with either coffeetide cC1a or 0.1% Triton X-100 (utilized as a positive control) for a duration of 24 h. Following the incubation period, MTT was introduced to the cells to achieve a final concentration of 0.5 mg/mL and incubated for 3 h at 37 °C. The resulting insoluble formazan crystals were subsequently dissolved by the addition of dimethyl sulfoxide, and absorbance was measured at 550 nm using a microplate reader (Tecan Infinite® 200 Pro, Switzerland).

[2] = Isothermal titration calorimetry (ITC), K+; assay type: binding; settings: 200 µM (also 400 µM) metal ion titrated into cC1a, 10 mM Tris, 100 mM NaCl, pH 6.3
Method: (§6) Isothermal Titration Calorimetry (ITC) experiments were conducted at 298 K using the MicroCal PEAQ ITC system from Malvern Instruments Ltd., Malvern, UK. MgCl2, KCl, CaCl2, and FeCl3 were dissolved in a 10 mM Tris buffer containing 100 mM NaCl at a pH of 6.3. Similarly, coffeetide cC1a was prepared in the same buffer. In the initial set of experiments, 200 µM of these ions were incrementally titrated into cC1a, involving twenty 2.5 µL injections, while simultaneously measuring the heat changes. Additional experiments were conducted with higher concentrations of KCl, MgCl2, and FeCl3 interacting with cC1a. Specifically, 400 µM of KCl, MgCl2, and FeCl3 were titrated into a solution containing 40 µM of cC1a, utilizing twenty 2.5 µL injections, and monitoring the associated heat changes. Control experiments were conducted by titrating ions into a 10 mM Tris (pH 6.3) buffer containing 100 mM NaCl to account for heat changes resulting from dilution. The obtained titration curves were analyzed using MicroCal PEAQ-ITC analytics software (version 1.0.0.1259, Malvern Instruments Ltd.).

aminopeptidase I = tested on: T2, aminopeptidase I; assay: Proteolytic stability, aminopeptidase I; assay type: in vitro ADME; settings: native cC1a 200 µM, 20 U/mL aminopeptidase I in 20 mM tricine, 0.05% BSA, pH 8.0, 37 °C, RP-UHPLC, read-out: coffeetide remained intact with aminopeptidase
T2 construct: purchased Sigma Aldrich or Fisher Scientific (general statement only)
Method: as §1, §3

Thermal stability assay = assay type: physicochemical; settings: native cC1a 200 µM; high heat (95 °C in text; 100 °C water bath in legend and method), 2 h; quenched in ice bath; RP-UHPLC quantification; triplicate
Method: as §1, §2

[3] = Isothermal titration calorimetry (ITC), Ca2+; assay type: binding; settings: 200 µM metal ion titrated into cC1a, 10 mM Tris, 100 mM NaCl, pH 6.3
Method: as §6

[4] = Isothermal titration calorimetry (ITC), Mg2+; settings: 10 mM Tris, 100 mM NaCl, pH 6.3, 20 °C in text (298 K in method), synthetic cC1a, read-out: binding affinity (KD) to Mg^2+
Method: as §6

[5] = Isothermal titration calorimetry (ITC), Fe3+; settings: 10 mM Tris, 100 mM NaCl, pH 6.3, 20 °C in text (298 K in method), synthetic cC1a, read-out: binding affinity (KD) to Fe^3+
Method: as §6

HUVEC-CS cells = assay: MTT toxicity assay, HUVEC-CS; assay type: cell-based, human; settings: 24 h treatment, concentrations up to 100 µM, MTT absorbance 550 nm, mean ± S.E.M. n = 3
Method: as §4, §5

Compound: CC[C@H](C)[C@@H]1NC(=O)[C@@H]2CSSC[C@@H]3NC(=O)[C@@H]4CCCN4C(=O)[C@H](CCC(=O)O)NC(=O)CNC(=O)[C@H](CC(C)C)NC(=O)[C@@H]4CCCN4C(=O)[C@H](CO)NC(=O)[C@@H](NC(=O)[C@H](CCC(=O)O)NC(=O)CNC(=O)[C@H](CCC(=O)O)NC(=O)[C@@H]4CCC(=O)N4)CSSC[C@@H]4NC(=O)[C@H](CSSC[C@H](NC(=O)[C@H](CCCNC(=N)N)NC(=O)[C@H](CC(=O)O)NC(=O)[C@H]([C@@H](C)O)NC(=O)[C@H](CC(C)C)NC(=O)[C@H](CCC(N)=O)NC(=O)[C@H](Cc5c[nH]c6ccccc56)NC1=O)C(=O)N[C@@H](C(C)C)C(=O)NCC(=O)N[C@@H](CC(N)=O)C(=O)N[C@H](C(=O)O)CSSC[C@H](NC(=O)CNC(=O)[C@@H]1CCCN1C4=O)C(=O)N[C@@H]([C@@H](C)CC)C(=O)N2)NC(=O)CNC(=O)[C@H](Cc1c[nH]c2ccccc12)NC(=O)[C@@H]1CCCN1C(=O)[C@H](CC(N)=O)NC(=O)CNC(=O)[C@H](C)NC3=O [cC1a] ([pGlu]EGECSPLGEPCAGNPWGCCPGCICIWQLTDRCVGNC-OH; disulfide 5-20, 12-25, 19-33, 23-37)
- coffeetide remained intact under acidic conditions (Acidic stability assay): > 88%
- remaining at 6 h, 200 µM (pepsin): > 90%
- remaining at 36 h, 200 µM [1]: > 85%
- cytotoxicity (MTT cell viability) (HeLa cells): not cytotoxic
- binding affinity to K^+ [2]: does not display reproducible binding affinity
- remaining at 6 h, 200 µM (aminopeptidase I): > 90%
- coffeetide remained intact under high heat (Thermal stability assay): > 88%
- binding affinity to Ca^2+ [3]: does not display reproducible binding affinity
- Kd [4]: 4190 ± 4790 nM
- Kd [5]: 1670 ± 1800 nM
- cytotoxicity (MTT cell viability) (HUVEC-CS cells): not cytotoxic

Source: article PMC10538209, “Ginsentide-like Coffeetides Isolated from Coffee Waste Are Cell-Penetrating and Metal-Binding Microproteins” (Molecules, 2023)
